Results taken from ChEMBL document CHEMBL3137667, “[Drug-induced liver injury; fourteenth updated edition of the bibliographic database of liver injuries and related drugs]” (Gastroenterol Clin Biol, 2004).

How the values were obtained:
[1] = human, serum
[2] = Times to onset, minimal and maximal, observed in the indexed observations. [column 'DELAI' in source]; settings: human
[3] = human
[4] = human; remark: listed apart in the source
[5] = human; remark: listed apart in the source
[6] = human, serum; remark: listed apart in the source
[7] = human; remark: listed apart in the source
[8] = human; remark: listed apart in the source
[9] = human, serum, 4383 h
[10] = human; remark: listed apart in the source
[11] = human; remark: listed apart in the source
[12] = human; remark: listed apart in the source
[13] = human; remark: listed apart in the source
[14] = human; remark: listed apart in the source
[15] = Presence of at least one case with successful reintroduction. [column 'REINT' in source]; settings: human
[16] = Highest frequency of acute liver toxicity observed during clinical trials, expressed as a percentage. [column '% AIGUE' in source]; settings: human
[17] = Highest frequency of moderate liver toxicity observed during clinical trials, expressed as a percentage. [column '% BIOL' in source]; settings: human
[18] = Proposed mechanism(s) of liver damage. [column 'MEC' in source]; settings: human
[19] = Comments (NB not yet translated). [column 'COMMENTAIRES' in source]; settings: human
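Throughout, for Hepatotoxicity (association with vascular disease): count of indexed literature references reporting vascular liver injury in humans, e.g. peliosis hepatitis, hepatic veno-occlusive disease or Budd-Chiari syndrome.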
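Throughout, for Hepatotoxicity (benign tumour): value is a count of indexed literature references citing a benign tumour confirmed by histopathology.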
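Throughout, for Hepatotoxicity (choleostasis): human cholestatic liver injury, shown by histopathology or by peak ALT or AST elevation over alkaline phosphatase ratio below 2, value counts indexed literature reports.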
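Throughout, for Hepatotoxicity (chronic liver disease): chronic liver injury confirmed by histopathology or persistently raised serum aminotransferase activity beyond 6 months, value given as the count of indexed literature references.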
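Throughout, for Hepatotoxicity (cirrhosis): value is a count of indexed literature references reporting cirrhosis confirmed by histopathology.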
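Throughout, for Hepatotoxicity (cytolytic): human cytolytic liver injury, shown by histopathology or by a ratio above 5 of peak ALT or AST elevation to alkaline phosphatase elevation, value counts indexed references.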
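Throughout, for Hepatotoxicity (granulomatous hepatitis): value is a count of indexed literature references reporting granulomatous liver disease confirmed by histopathology.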
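Throughout, for Hepatotoxicity (malignant tumour): malignant tumour confirmed by histopathology, value gives the count of indexed literature references reporting it.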
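Throughout, for Hepatotoxicity (severe hepatitis): human clinical data: severe hepatitis, meaning potentially life-threatening liver failure or clinically observed cases, the value counts how many indexed literature references report it.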
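Throughout, for Hepatotoxicity (steatosis): steatosis confirmed by histopathology, value is the count of indexed references.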

SMILES	Hepatotoxicity (moderate) [1]	Hepatotoxicity (time to onset) [2]	Hepatotoxicity (granulomatous hepatitis) [3]	Hepatotoxicity (severe hepatitis) [4]	Hepatotoxicity (benign tumour) [5]	Hepatotoxicity (acute) [6]	Hepatotoxicity (cytolytic) [7]	Hepatotoxicity (steatosis) [8]	Hepatotoxicity (chronic liver disease) [9]	Hepatotoxicity (animal toxicity known) [10]	Hepatotoxicity (malignant tumour) [11]	Hepatotoxicity (association with vascular disease) [12]	Hepatotoxicity (cirrhosis) [13]	Hepatotoxicity (choleostasis) [14]	Hepatotoxicity (successful reintroduction) [15]	Hepatotoxicity (acute) [16] [%]	Hepatotoxicity (moderate) [17] [%]	Hepatotoxicity (mechanism) [18]	further results
C[C@H]1O[C@H](O[C@H]2[C@H](O)[C@@H](O)[C@@H](O[C@H]3[C@H](O)[C@@H](O)C(O)O[C@@H]3CO)O[C@@H]2CO)[C@H](O)[C@@H](O)[C@@H]1N[C@H]1C=C(CO)[C@@H](O)[C@H](O)[C@H]1O (stereo partly specified) [ACARBOSE]	6	1 week - 1.5 years	0	0	0	7	6	0	0	yes	0	0	0	0	yes	0	9.9		
Cc1nnc2n1-c1ccc(Cl)cc1C(c1ccccc1)=NC2 [ALPRAZOLAM]	3	3 days - 3 weeks	0	1	0	4	2	0	0	A	0	1	0	1	yes	0.4	8	Dose-dependant	
C[C@@H]1[C@H](O)[C@@H](C)/C=C/C=C/C=C/C=C/C=C/C=C/C=C/[C@H](O[C@@H]2O[C@H](C)[C@@H](O)[C@H](N)[C@@H]2O)C[C@@H]2O[C@](O)(C[C@@H](O)C[C@@H](O)[C@H](O)CC[C@@H](O)C[C@@H](O)CC(=O)O[C@H]1C)C[C@H](O)[C@H]2C(=O)O [AMPHOTERICIN B]	28	2 days - 4 months	0	4	0	15	6	2	0	yes	0	0	0	7	yes	50	91.7	Dose-dependant	
C[C@H](CCC(=O)O)[C@H]1CC[C@H]2[C@@H]3[C@H](O)C[C@@H]4C[C@H](O)CC[C@]4(C)[C@H]3CC[C@]12C [CHENODIOL]	22	3 weeks - 3 months	0	0	0	5	3	0	1	yes	0	0	0	2	yes	3	37	Dose-dependant	
O=C1c2cccc(O)c2C(=O)c2c(O)cccc21 [DANTHRON]	1	2 days - 1 year	0	0	0	0	0	0	1	yes	0	0	0	0	yes	0	0		
COC1=CC(=O)C[C@@H](C)[C@]12Oc1c(Cl)c(OC)cc(OC)c1C2=O [GRISEOFULVIN]	9	3 days - 4.5 months	0	0	0	5	1	0	0	yes	0	0	0	2	yes	2.8	50		
N=C(N)c1ccc(OCCCCCOc2ccc(C(=N)N)cc2)cc1 [PENTAMIDINE]	17	1 week - 3 months	0	2	0	4	4	1	0	yes	0	0	0	0	yes	0	43.5		
CN(C/C=C/C#CC(C)(C)C)Cc1cccc2ccccc12 [TERBINAFINE]	21	1 week - 6 months	0	3	0	23	7	0	1	yes	0	1	0	15		0	36.7	Reactive metabolite	Hepatotoxicity (comment) [19]: CHOLANGITE DUCTOPENIE CHOLESTASE_PROLONGEE
N[C@@H]1C[C@H]1c1ccccc1.N[C@H]1C[C@@H]1c1ccccc1 [TRANYLCYPROMINE]	0				0	2		0	0	yes	0	0	0		yes				Hepatotoxicity (granulomatous hepatitis) ([3]; Liver): 0; Hepatotoxicity (severe hepatitis) ([4]; Liver): 0; Hepatotoxicity (cytolytic) ([7]; Liver): 2; Hepatotoxicity (choleostasis) ([14]; Liver): 2; Hepatotoxicity (acute) ([16]; Liver): 0%; Hepatotoxicity (moderate) ([17]; Liver): 0%
